Key:
Papayas ‘Golden’ [1] = test: Example 1: pulp firmness, external (FTA, 8 mm probe); type: in vivo, papaya; conditions: 100 ppb of MCP
Procedure: (§1) Papayas ‘Golden’ were harvested in Linhares—Espírito Santo—Brazil. The harvested fruits were packed in MAP Bags and put in cardboard boxes.
(§2) The appropriate weight of papayas was placed in each bag after harvest. Bags were placed in the same cardboard boxes used to export the fruits. Papayas then were cold stored at (11° C.) at the Laboratory.
(§3) The Test Protocol that was used was as follows. 36 MAP bags were packed. Each bag held approximately 3.8 kg (8.4 lb) of papayas. One such bag was packed in each cardboard box. Total weight of papayas in MAP bags was approximately 137 kg. Approximately 91 kg of papayas were placed into cardboard boxes identical to those used for the MAP bags.
(§4) The MAP-packaged papayas were packaged as follows: Nine fruits, approximately 3.8 kg were carefully placed into microperforated bags, and the bags were sealed by twisting the open side of the bag, folding down the twisted end, and placing a rubber band around the twisted and folded end of the bag.
(§5) All papayas were kept at cold temperature (11° C.) during 27 days and after that the fruits (packed in MAP bags or not) were put in room temperature (22° C.) during 8 days.
(§6) One day after harvest, when the papayas had around 25 lbf of average firmness, each treatment set was marked, placed in a hermetical chamber at cold temperature (11° C.). All chambers were of equal size and packed the same way. Treatment was for 12 hours. In the chambers for the 3 “MCP” treatment groups, at the beginning of the treatment period, SmartFresh™ were placed in the chamber. The amount of SmartFresh™ was chosen to achieve the indicated concentration of 1-methylcyclopropene in the atmosphere of the chamber.
(§7) Evaluation for skin color and firmness was as follows. Day “zero” was the day the papayas were removed from the chamber and placed in storage.
(§8) For the Pulp Firmness evaluation two measurements where done, one for External Firmness and another for Internal Firmness. For External Firmness, the papayas had the skin removed with a peeler and the pulp firmness was measured with a Firmness Texture Analyzer (FTA) with a probe of 8 mm. For Internal Firmness, the papayas were cut transversally and a measurement close to the center of the fruit was taken with the FTA.

Papayas ‘Golden’ [2] = test: Example 1: pulp firmness, internal (FTA); type: in vivo, papaya; conditions: for Pulp Firmness - Internal: 100 ppb of MCP
Procedure: as §1, §2, §3, §4, §5, §6, §7, §8

Papayas ‘Golden’ [3] = test: Example 2 (yellow stage): papaya skin color rating; type: in vivo; conditions: for Skin color ratings: 500 ppb of MCP, scale 1 green to 5 yellow
Procedure: A similar test to Example 1 but papayas are tested during their yellow stage. Papayas ‘Golden’ were harvested in Linhares—Espírito Santo—Brazil. The fruits were packed in MAP Bags and put in cardboard boxes.
The fruits were first left at room temperature during 3 days to reach yellow maturity stage.
After that the appropriate weight of papayas was placed in each bag after harvest. Bags were placed in the same cardboard boxes used to export the fruits. Papayas then were cold stored at (11° C.) at the Laboratory.
The Test Protocol that was used was as follows. 18 MAP bags were packed. Each bag held approximately 3.8 kg (8.4 lb) of papayas. One such bag was packed in each cardboard box. Total weight of papayas in MAP bags was approximately 68 kg. Approximately 68 kg of papayas were placed into cardboard boxes identical to those used for the MAP bags.
as §4
All papayas were kept at cold temperature (11° C.) during 26 days and after that the fruits (packed in MAP bags or not) were put in room temperature (22° C.) during 8 days.
After the 3 days for maturation at room temperature, when the papayas had around 5 lbf of average firmness, each treatment set was marked, placed in a hermetical chamber at cold temperature (11° C.). All chambers were of equal size and packed the same way. Treatment was for 12 hr. In the chambers for the 2 “MCP” treatment groups, at the beginning of the treatment period, SmartFresh™ were placed in the chamber. The amount of SmartFresh™ was chosen to achieve the indicated concentration of 1-methylcyclopropene in the atmosphere of the chamber.
as §7
(§9) The Papaya Skin Color was rated with the following scale: 1: green; 2: approximately 25%; 3: approximately 50% colored; 4: approximately 75% colored; 5: yellow.

Papayas ‘Golden’ [4] = test: Example 1: percentage of fruits with ideal internal pulp firmness (2.5-7.0 lbf); type: in vivo, papaya; conditions: 100 ppb of MCP, ideal = between 2.5 and 7.0 lbf
Procedure: as §1, §2, §3, §4, §5, §6, §8
The desirable internal pulp firmness for consumption of papayas is between 2.5 and 7.0 lbf. The percentage of fruits with internal pulp firmness between 2.5 and 7.0 lbf was calculated.

Papayas ‘Golden’ [5] = test: Example 1: papaya skin color rating; type: in vivo; conditions: for Skin color ratings: 100 ppb of MCP, scale 1 green to 5 yellow
Procedure: as §1, §2, §3, §4, §5, §6, §7, §9

[6] = MAP bag, 27 days at 11° C. then 0 days @ 22° C.
[7] = MAP bag, 27 days at 11° C. then 4 days @ 22° C.
[8] = MAP bag, 27 days at 11° C. then 8 days @ 22° C.
[9] = No Bag, 27 days at 11° C. then 0 days @ 22° C.
[10] = No Bag, 27 days at 11° C. then 4 days @ 22° C.
[11] = No Bag, 27 days at 11° C. then 8 days @ 22° C.

CC1=CC1 [MCP, 1-methylcyclopropene]
Pulp Firmness - External (Papayas ‘Golden’ [1]; [6]): 17.1 lbf
Pulp Firmness - External (Papayas ‘Golden’ [1]; [7]): 17.0 lbf
Pulp Firmness - External (Papayas ‘Golden’ [1]; [8]): 6.2 lbf
Pulp Firmness - External (Papayas ‘Golden’ [1]; [9]): 25.0 lbf
Pulp Firmness - External (Papayas ‘Golden’ [1]; [10]): 23.4 lbf
Pulp Firmness - External (Papayas ‘Golden’ [1]; [11]): 7.8 lbf
internal firmness during shelf-life, in words (Papayas ‘Golden’ [2]; 1-MCP alone (no MAP)): too high internal firmness
Pulp Firmness - Internal (Papayas ‘Golden’ [2]; [6]): 3.3 lbf
Pulp Firmness - Internal (Papayas ‘Golden’ [2]; [7]): 3.2 lbf
Pulp Firmness - Internal (Papayas ‘Golden’ [2]; [8]): 1.5 lbf
Pulp Firmness - Internal (Papayas ‘Golden’ [2]; [9]): 16.9 lbf
Pulp Firmness - Internal (Papayas ‘Golden’ [2]; [10]): 12.2 lbf
Pulp Firmness - Internal (Papayas ‘Golden’ [2]; [11]): 3.2 lbf
papayas color, in words (Papayas ‘Golden’ [3]; 1-MCP alone (no MAP)): did not hold the papayas color
Skin color ratings (Papayas ‘Golden’ [3]; MAP bag, 26 days at 11° C. then 0 days @ 22° C.): 2.18
Skin color ratings (Papayas ‘Golden’ [3]; MAP bag, 26 days at 11° C. then 4 days @ 22° C.): 3.62
Skin color ratings (Papayas ‘Golden’ [3]; MAP bag, 26 days at 11° C. then 8 days @ 22° C.): 4.88
Skin color ratings (Papayas ‘Golden’ [3]; No Bag, 26 days at 11° C. then 0 days @ 22° C.): 2.70
Skin color ratings (Papayas ‘Golden’ [3]; No Bag, 26 days at 11° C. then 4 days @ 22° C.): 4.91
Skin color ratings (Papayas ‘Golden’ [3]; No Bag, 26 days at 11° C. then 8 days @ 22° C.): 5.00
Percentage of fruits with ideal internal pulp firmness (Papayas ‘Golden’ [4]; [6]): 52.38%
Percentage of fruits with ideal internal pulp firmness (Papayas ‘Golden’ [4]; [7]): 44.44%
Percentage of fruits with ideal internal pulp firmness (Papayas ‘Golden’ [4]; [8]): 13.88%
Percentage of fruits with ideal internal pulp firmness (Papayas ‘Golden’ [4]; [9]): 1.19%
Percentage of fruits with ideal internal pulp firmness (Papayas ‘Golden’ [4]; [10]): 11.11%
Percentage of fruits with ideal internal pulp firmness (Papayas ‘Golden’ [4]; [11]): 58.33%
papayas color, in words (Papayas ‘Golden’ [5]; 1-MCP alone (no MAP)): did not hold the papayas color
Skin color ratings (Papayas ‘Golden’ [5]; [6]): 2.14
Skin color ratings (Papayas ‘Golden’ [5]; [7]): 2.74
Skin color ratings (Papayas ‘Golden’ [5]; [8]): 3.46
Skin color ratings (Papayas ‘Golden’ [5]; [9]): 1.70
Skin color ratings (Papayas ‘Golden’ [5]; [10]): 4.28
Skin color ratings (Papayas ‘Golden’ [5]; [11]): 4.44
